The values that follow come from patent US9822106B2, “Inhibitors of leukotriene A4 hydrolase” (Celtaxsys, Inc., priority 2013, dated 2017).

Molecules are shown by their SMILES. Read-outs that look alike come from different tables or passages of the source.

Experiment [1] deals with ionophore-induced LTB4 production. Conditions: oral administration; mouse blood ex vivo; cited from earlier work.
Experiment [2] shares this test system. The following applies: oral administration; rat peritoneum in vivo; cited from earlier work.
Another experiment deals with colitis. The following applies: eight weeks of treatment; cotton top tamarins; cited from earlier work.
The next experiment deals with T1, LTA4-h hydrolase (Homo sapiens, UniProt P09960).
T1 construct: from tissue; host or cells: whole blood
T1 sequence (P09960 1-611): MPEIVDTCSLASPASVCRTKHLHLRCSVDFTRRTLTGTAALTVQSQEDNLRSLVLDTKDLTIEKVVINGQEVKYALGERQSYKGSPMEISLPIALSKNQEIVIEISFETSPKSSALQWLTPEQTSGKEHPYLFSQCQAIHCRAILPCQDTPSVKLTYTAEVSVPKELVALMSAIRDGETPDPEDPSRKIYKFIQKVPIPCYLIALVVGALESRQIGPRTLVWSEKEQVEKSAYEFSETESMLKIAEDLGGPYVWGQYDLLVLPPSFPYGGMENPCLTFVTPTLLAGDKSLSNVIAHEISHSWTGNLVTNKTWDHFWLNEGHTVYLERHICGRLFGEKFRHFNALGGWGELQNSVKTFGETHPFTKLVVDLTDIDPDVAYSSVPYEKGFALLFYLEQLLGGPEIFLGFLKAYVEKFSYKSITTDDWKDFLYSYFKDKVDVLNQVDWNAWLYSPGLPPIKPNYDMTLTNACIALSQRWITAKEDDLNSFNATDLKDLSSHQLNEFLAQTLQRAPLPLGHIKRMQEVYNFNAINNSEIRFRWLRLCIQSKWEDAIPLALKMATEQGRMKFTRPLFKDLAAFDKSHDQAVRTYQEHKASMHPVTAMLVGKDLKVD
In words: whole blood assay (WBA). The class given is cell-based. The source says:
Compounds of the invention can also be tested for their ability as inhibitors of LTA4-h hydrolase in the whole blood assay using human, mouse, rat or dog whole blood (see Penning, T. D. et al., J. Med. Chem. (2000), 43(4): 721-735 for a description of a human whole blood assay and a mouse whole blood assay, the contents of which are expressly incorporated herein).
(§1) Tables 4 to 6 below show the IC50 values for peptidase, hydrolase and whole blood assay (WBA) activity for exemplary compounds encompassed by the invention. The whole blood and aminopeptidase assays were performed as described in Penning et al., J. Med. Chem. 2000, 43, 721-735, and Rudberg et al., J. Biol. Chem. Vol. 279, No. 26, Issue of June 25, pp. 27376-27382, 2004, the contents of each of which are expressly incorporated by reference herein. The hydrolase assay was performed as described in U.S. Pat. No. 7,737,145, the contents of which are expressly incorporated herein.

The target in experiment [3] is T2, LTA4-h (Homo sapiens, UniProt P09960).
T2 sequence (P09960 1-611): T1 sequence (P09960 1-611)
Kind of experiment: peptidase (aminopeptidase) assay. The class given is biochemical. The source says: Since LTA4-h hydrolase is grouped with the M1 family of zinc metalloproteases (see, Rudberg, P. C. et al., J. Biol. Chem. 2002, Vol. 277, page 1398-1404), the compounds of the invention can be tested in the standard hydrolase and peptidase assay to determine the compounds' kinetic constants for binding to LTA4-h hydrolase and for inhibiting LTB4 synthesis (see Askonas, L. J., et al., The Journal of Pharmacology and Experimental Therapeutics 2002, 300(2): 577-582; Penning, T. D., J. Med. Chem. 2000, 43(4): 721-735; Kull, F. et al., The Journal of Biological Chemistry 1999, 274 (49): 34683-34690, the contents of which are expressly incorporated by reference herein).
The whole blood and aminopeptidase assays were performed as described in Penning et al., J. Med. Chem. 2000, 43, 721-735, and Rudberg et al., J. Biol. Chem. Vol. 279, No. 26, Issue of June 25, pp. 27376-27382, 2004, the contents of each of which are expressly incorporated by reference herein. The hydrolase assay was performed as described in U.S. Pat. No. 7,737,145, the contents of which are expressly incorporated herein.

For experiment [4], the target named is T2, LTA4-h. Kind of experiment: hydrolase assay (hydrolase-homogeneous time resolved fluorescence). The class given is biochemical.
From the text: The compounds of the invention can be tested for their ability to inhibit LTA4-h by various known assays and by assays described herein. For example, the compounds can be tested for their ability to inhibit LTA4-h activity by assaying the compounds in the hydrolase-homogeneous time resolved fluoroescence assay. This assay, which is a two-step assay, measures the hydrolysis of […] to LTB4 by analyzing the amount of LTB4 produced. The first step involves the enzymatic conversion of […] to LTB4 and the second step involves the quantification of the […] with a homogeneous time resolved fluoroescence assay.
as §1

The IC50 is the concentration needed to halve the response being measured. A word on the inhibition: it is the drop in the measured response relative to a control, in per cent.

Consider `CN(CCCOc1ccc(Cc2ccccc2)cc1)CCC(=O)O.Cl` [SC57461], for which the “inhibition of ionophore-induced LTB4 production” value in experiment [1] and in experiment [2] was “caused inhibition” in each case. Moreover, the colitis symptoms entry in the experiment on colitis is “significantly improved colitis symptoms”.

Regarding `CN(Cc1ccc(Oc2ccc(Cl)cc2)cc1)Cc1cccnc1Oc1ccc(C(=O)O)cc1` [Compound 8], the IC50 was found to be 290 nM on LTA4-h hydrolase (read-out: IC50 WBA), 78 nM against LTA4-h [3] and 50 nM at LTA4-h [4].

With `COCCN(Cc1ccc(Oc2ccc(Cl)cc2)cc1)Cc1ccccc1Oc1cccc(C(=O)O)c1` [Compound 15], the IC50 turned out to be 1950 nM at LTA4-h hydrolase (read-out: IC50 WBA) and 470 nM against LTA4-h [3]. Also, on LTA4-h [4] (at 3 uM), the inhibition at 3 µM amounted to 18%.

For `O=C(O)C1CCN(c2ccc(CNCc3ccc(Oc4ccc(Cl)cc4)cc3)cn2)CC1` [Compound 2], the IC50 at LTA4-h hydrolase (prefix 'r' not defined, read-out: IC50 WBA, second value given with prefix 'r') is 360 nM; on LTA4-h hydrolase (read-out: IC50 WBA) it was 730 nM; on LTA4-h [3], 68 nM; at LTA4-h [4], 69 nM.
